Measured values: ChEMBL document CHEMBL5321229, “Conformationally locked sugar derivatives and analogues as potential neuraminidase inhibitors” (Eur J Med Chem, 2023)
pIC50: −log10 of the molar value.

Molecular target: Neuraminidase (Influenza A virus (A/Memphis/1/1971(H3N2)), UniProt P03471, E119V)
Assay: Inhibition of influenza A virus H3N2 (A/Moscow/10/99) harboring E119V mutant neuraminidase using MUNANA as substrate preincubated for 30 mins followed by substrate addition by fluorescence-based assay

Compound: CCC(CC)O[C@@H]1C=C(C(=O)O)C[C@H](n2nncc2-c2cccc(N)c2)[C@H]1NC(C)=O
- pIC50: 6.10
